Patent US10793520B2, “Sulfonylaminobenzamide compound and pest control agent” (Nippon Soda Co., Ltd., priority 2016, dated 2020)

Columns and labels:
Aedes aegypti = experiment: Contact/ingestion efficacy test against Aedes aegypti larvae; type: in vivo; details: final concentration 12.5 μM, first-instar larvae, after 48 hours, 28° C., 80% RH, read-out: mortality rate against Aedes aegypti
Method: A DMSO solution of the compound of the present invention was diluted with water to obtain a 125 μM dilute solution. Ten first-instar larvae of Aedes aegypti were placed in each well of a 96-well microtiter plate, the above dilute liquid was added in a ratio of 1/10, and a test was conducted at a final concentration of 12.5 μM. The samples were incubated in a temperature-controlled room (28° C., 80% RH), and after 48 hours of treatment with the compound, the mortality of the larvae was investigated. The test was repeated.

Caenorhabditis elegans = experiment: Efficacy test against Caenorhabditis elegans (in vitro test); details: 48 h, final concentration 50 ppm, mixed instars, 2 days at 25° C., read-out: nematode mortality rate against Caenorhabditis elegans
Method: (§1) Two hundred μL of a suspension containing about 50 mixed instars of Caenorhabditis elegans was dispensed into each well of a 96-well microplate, and 0.2 μL of a 10,000 ppm dimethylsulfoxide solution of the compound of the present invention was injected into each well to achieve a final concentration of 50 ppm. Mortality was investigated after 2 days treatment at 25° C., and the nematode mortality rate was calculated. […] The test was repeated.

Meloidogyne incognita [1] = experiment: Efficacy test against Meloidogyne incognita (in vitro test); details: 48 h, final concentration 50 ppm, second-instar larvae (L2), 2 days at 15° C., read-out: nematode mortality (still) rate against Meloidogyne incognita
Method: as §1, with “second-instar larvae (L2)” for “mixed instars”, “Meloidogyne incognita” for “Caenorhabditis elegans”, “15°” for “25°”

Spodoptera litura = experiment: Efficacy test against Spodoptera litura (cabbage leaf dip); type: in vivo; details: foliar, 144 h, cabbage leaves soaked 30 seconds, second-instar larvae, 6 days after larvae release, read-out: mortality rate against Spodoptera litura
Method: (§2) Five parts of the compound of the present invention, 93.6 parts of dimethylformamide and 1.4 parts of a polyoxyethylene alkyl aryl ether were mixed together and dissolved to obtain an emulsion (1) containing 5% of the active constituent.
The mortality rate was calculated using the following equation. Mortality rate (%)=(number of dead pests/number of test pests)×100
The emulsion (1) was diluted with water to achieve a concentration of the compound of the present invention of 125 ppm. Cabbage leaves were soaked in the diluted liquid for 30 seconds. These cabbage leaves were then placed in a Petri dish, and five second-instar larvae of Spodoptera litura were released into the dish. The Petri dish was placed in a temperature-controlled room at a temperature of 25° C. and a humidity of 60%. Mortality was investigated 6 days after larvae release, and the mortality rate was calculated. The test was repeated.

Mythimna separata = experiment: Efficacy test against Mythimna separata (treated artificial feed); details: in vivo
How it was run: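 Second-instar larvae (2 per area) were given artificial feed mixed with a 5% active-constituent emulsion in DMF with polyoxyethylene alkyl aryl ether. They were kept sealed at 25 °C. Mortality (dead/tested ×100) and feed consumption were scored on day 5, with a compound-free emulsion as control.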

Ascaridia galli = experiment: Efficacy test against Ascaridia galli (in vitro, L3 larvae, MEC); details: activity against at least one type of target parasitic worm: Ascaridia galli L3 or Oesophagostomum dentatum L3/L4
Method: Using the gut-welling larval stages of two parasitic worms: namely, the third stage larvae (L3) of Ascaridia galli, and the third and fourth stage larvae (L3 and L4 respectively) of Oesophagostomum dentatum, the bioactivity of compounds of the present invention were investigated in vitro. When conducting these tests, DMSO solutions of the compounds of the present invention were prepared at various concentrations and incubated in the wells of a 96-well microtiter plate. Subsequently, 20 parasitic worm larvae were inoculated into each well. The bioactivity was determined by inspection under a microscope. The inspection under a microscope included evaluations of the mortality rate, injury, motility, development progression, and neutral red uptake by the larvae compared with a DMSO control.

Dirofilaria immitis = experiment: Efficacy test against Dirofilaria immitis (in vitro, Mf and L4); details: 10 μM, 72 hours, 37° C.
Excerpt: Using the microfilarial stage and the fourth stage larvae (Mf and L4 respectively) of Dirofilaria immitis, the bioactivity of compounds of the present invention were investigated in vitro. The Mf was collected from the blood of infected dogs, and 500 microfilariae were inoculated into each well of a 96-well microtiter plate. The L4 larvae was obtained by allowing L3 larvae collected from infected mosquitoes to undergo a single molt, and 10 of these L4 larvae were inoculated into each well. Subsequently, a 10 mM DMSO solution of the compound of the present invention was prepared at various concentrations and added to each well in a ratio of 1/1,000, and a test was then conducted at a final concentration of 10 μM. Incubation was performed at 37° C. in an environment containing 5% carbon dioxide, and 72 hours after treatment with the compound, the mortality and growth inhibition were determined. The test was repeated.

Meloidogyne incognita [2] = experiment: Efficacy test against Meloidogyne incognita (clubroot formation suppression test on cucumber); type: in vivo; details: 125 ppm, 1 ml irrigated on culture medium with cucumber seeds; 200 eggs; after 14 days; relative to untreated sample
Method: as §2
The emulsion (I) was diluted with water to achieve a concentration of the compound of the present invention of 125 ppm. A plastic container with a diameter of 5 cm was filled with 7 g of a culture medium, and cucumber seeds were planted. The culture medium was irrigated with 1 ml of the above dilute liquid, and then inoculated with 200 eggs of Meloidogyne incognita. The container was then placed in a temperature-controlled room at a temperature of 25° C. and a humidity of 60%, and after 14 days, the clubroot formation suppression ratio (%) relative to an untreated sample was calculated from the number of clubroots formed on the roots of the cucumber plants. The test was repeated. Clubroot formation suppression ratio (%)=(1−Nt/Nc)×100
Nt: Total number of club roots formed in two treated samples after 14 days
Nc: Total number of club roots formed in two untreated samples after 14 days

Row | Structure (SMILES) | mortality rate against Mythimna separata, or amount of feed consumed relative to control (Mythimna separata) | other results
1 | O=C(Nc1ccc(C(F)(F)F)cc1)c1ccc(C(F)(F)F)cc1NS(=O)(=O)C(F)(F)F [a-9, 4-(trifluoromethyl)-N-[4-(trifluoromethyl)phenyl]-2-(trifluoromethylsulfonylamino)benzamide] | – | mortality at 12.5 µM (Aedes aegypti): ≥ 80%; mortality at 50 ppm (Caenorhabditis elegans): ≥ 80%; mortality at 50 ppm (Meloidogyne incognita [1]): ≥ 80%; mortality at 125 ppm (Spodoptera litura): ≥ 80%
2 | O=C(Nc1ccc(F)c(C(F)(F)F)c1)c1ccc(OC(F)(F)F)cc1NS(=O)(=O)C(F)(F)F [a-25] | 100%, or the amount of feed consumed was 10% or less | MEC (minimum effective concentration) (Ascaridia galli): ≤ 25 µM
3 | O=C(Nc1ccc(C(F)(F)F)cc1)c1ccc(OC(F)(F)F)cc1NS(=O)(=O)C(F)(F)F [a-26] | 100%, or the amount of feed consumed was 10% or less | mortality rate or growth inhibition rate (Dirofilaria immitis; fourth stage larvae (L4)): at least 90%; mortality rate or growth inhibition rate (Dirofilaria immitis; microfilarial stage (Mf)): at least 90%
4 | COC(=O)c1cc(Cl)c(Cl)cc1NC(=O)c1ccc(C(F)(F)F)cc1NS(=O)(=O)C(F)(F)F [a-80] | 100%, or the amount of feed consumed was 10% or less | clubroot formation suppression ratio against Meloidogyne incognita (Meloidogyne incognita [2]): ≥ 80%
5 | O=C(Nc1ccc(F)c(F)c1)c1ccc(C(F)(F)F)cc1NS(=O)(=O)C(F)(F)F [a-138] | 100%, or the amount of feed consumed was 10% or less | –
6 | O=C(Nc1cc(C(F)(F)F)ccc1-c1nnco1)c1ccc(C(F)(F)F)cc1NS(=O)(=O)C(F)(F)F [a-139] | 100%, or the amount of feed consumed was 10% or less | –
7 | O=C(Nc1ccc(F)c(C(F)(F)F)c1)c1ccc(Cl)cc1NS(=O)(=O)C(F)(F)C(F)(F)C(F)(F)C(F)(F)F [a-141] | 100%, or the amount of feed consumed was 10% or less | –
8 | O=C(Nc1ccc(F)c(F)c1)c1cc(Br)c(Cl)cc1NS(=O)(=O)C(F)(F)F [a-143] | 100%, or the amount of feed consumed was 10% or less | –
9 | O=C(NCc1ccc(Cl)cc1)c1ccc(C(F)(F)F)cc1NS(=O)(=O)C(F)(F)F [b-1] | 100%, or the amount of feed consumed was 10% or less | –
10 | CC(C)(NC(=O)c1ccc(C(F)(F)F)cc1NS(=O)(=O)C(F)(F)F)c1ccc(Cl)cc1 [b-2] | 100%, or the amount of feed consumed was 10% or less | –
11 | CC(NC(=O)c1ccc(C(F)(F)F)cc1NS(=O)(=O)C(F)(F)F)c1ncc(C(F)(F)F)cc1Cl (stereo not shown) [b-4] | 100%, or the amount of feed consumed was 10% or less | –
12 | CCC(NC(=O)c1ccc(C(F)(F)F)cc1NS(=O)(=O)C(F)(F)F)c1ccc(C(F)(F)F)cn1 (stereo not shown) [b-6] | 100%, or the amount of feed consumed was 10% or less | –
